The subject of one experiment is PC-3 cells. Nature of the experiment: Cell Proliferation Assay (Cell Titer Glo), PC-3 cell line. The conditions noted are these: Homo sapiens, PC-3, Cell Proliferation Assay, PC3; read-out: CPEC50 PC3. It is filed as cell-based. An outline of the steps: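 Cell Titer Glo luminescence, read after fresh medium replaced the dosing medium, gave viability of PC-3 cells plated at 1000 cells/well. Compounds, 1:3 serially diluted in DMSO at 500× and then in medium, were added after 3-5 h adhesion and incubated 3 days at 37° C.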
On the technique in general: Cellular ATP, detected with luciferase, serves as a proxy for viable cell number.

A further experiment concerns the target T1, PDK1 kinase (Homo sapiens, UniProt O15530).
T1 sequence (O15530 1-556): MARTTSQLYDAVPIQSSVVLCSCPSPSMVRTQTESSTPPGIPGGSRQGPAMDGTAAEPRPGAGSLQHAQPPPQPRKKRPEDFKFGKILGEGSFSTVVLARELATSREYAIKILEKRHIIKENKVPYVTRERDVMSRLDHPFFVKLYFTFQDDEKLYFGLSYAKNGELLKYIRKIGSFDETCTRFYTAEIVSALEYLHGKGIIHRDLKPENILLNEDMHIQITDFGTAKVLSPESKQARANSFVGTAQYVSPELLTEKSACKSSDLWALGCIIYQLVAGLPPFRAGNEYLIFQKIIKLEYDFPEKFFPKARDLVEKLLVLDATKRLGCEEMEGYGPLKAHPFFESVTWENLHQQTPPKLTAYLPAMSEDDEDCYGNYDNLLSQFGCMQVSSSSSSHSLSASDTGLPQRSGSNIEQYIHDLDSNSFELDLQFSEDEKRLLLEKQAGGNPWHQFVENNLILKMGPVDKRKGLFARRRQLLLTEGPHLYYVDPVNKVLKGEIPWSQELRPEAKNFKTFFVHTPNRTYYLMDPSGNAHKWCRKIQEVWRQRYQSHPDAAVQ
Nature of the experiment: PDK1 Kinase Alpha Screen Assay. Format: biochemical. Particulars: PDK1 Kinase Alpha Screen Assay; read-out: PDK1 IC50. An outline of the steps:
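AlphaScreen readout: phospho-peptide captured by phospho-(Ser/Thr) PKA substrate antibody (0.3 mg/ml) on protein A acceptor beads, biotin peptide on streptavidin donor beads (25 μg/ml each), overnight at room temperature. Kinase step used 50 nM PDK1-4 peptide, 10 uM ATP, 3-18 hours.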

These results are taken from patent US7932262B2 (Novartis AG, priority 2006, dated 2011).

A value given as a limit tells only on which side of the number the result lay.

For orientation: IC50 means the point on the concentration scale where inhibition reaches its midpoint.

In the case of `Cc1ccc(C(=O)O)cc1-c1ccc2cnc(Nc3ccc(S(N)(=O)=O)cc3)nc2c1` [Compound 390, 4-methyl-3-(2-(4-sulfamoylphenylamino)quinazolin-7-yl)benzoic acid], the EC50 with PC-3 cells is 5 to 10 µM. Further, the IC50 on PDK1 kinase was less than 5 µM.
On to `c1cc(-c2ccc(NCCN3CCCC3)nc2)c2nc(Nc3ccc4[nH]cnc4c3)ncc2c1` [Compound 393, N-(1H-benzo[d]imidazol-5-yl)-8-(6-(2-(pyrrolidin-1-yl)ethylamino)pyridin-3-yl)quinazolin-2-amine], for which the EC50 in the experiment with PC-3 cells is less than 5 µM. In addition, the IC50 at PDK1 kinase was less than 5 µM.
With `COc1cccc(Nc2ncc3cccc(-c4ccc(NCCN5CCCC5)nc4)c3n2)c1` [Compound 395, N-(3-methoxyphenyl)-8-(6-(2-(pyrrolidin-1-yl)ethylamino)pyridin-3-yl)quinazolin-2-amine], in the experiment with PC-3 cells, the EC50 was less than 5 µM. Besides, the IC50 at PDK1 kinase was less than 5 µM.
As for `CC(=O)Nc1ccc(Nc2ncc3cccc(-c4ccc(NCCN5CCCC5)nc4)c3n2)cc1` [Compound 396, N-(4-(8-(6-(2-(pyrrolidin-1-yl)ethylamino)pyridin-3-yl)quinazolin-2-ylamino)phenyl)acetamide], in the experiment with PC-3 cells, the EC50 lay within 5 to 10 µM. Besides, on PDK1 kinase, the IC50 was less than 5 µM.
As for `N#Cc1cccc(Nc2ncc3cccc(-c4ccc(NCCN5CCCC5)nc4)c3n2)c1` [Compound 397, 3-(8-(6-(2-(pyrrolidin-1-yl)ethylamino)pyridin-3-yl)quinazolin-2-ylamino)benzonitrile], the EC50 with PC-3 cells was less than 5 µM. The IC50 at PDK1 kinase is less than 5 µM.
For `Clc1cccc(Nc2ncc3cccc(-c4ccc(NCCN5CCCC5)nc4)c3n2)c1` [Compound 398, N-(3-chlorophenyl)-8-(6-(2-(pyrrolidin-1-yl)ethylamino)pyridin-3-yl)quinazolin-2-amine], in the experiment on PC-3 cells, the EC50 is less than 5 µM. The IC50 on PDK1 kinase was less than 5 µM.
`O=S(=O)(c1cccc(Nc2ncc3cccc(-c4ccc(NCCN5CCCC5)nc4)c3n2)c1)N1CCOCC1` [Compound 399, N-(3-(morpholinosulfonyl)phenyl)-8-(6-(2-(pyrrolidin-1-yl)ethylamino)pyridin-3-yl)quinazolin-2-amine]: the EC50 with PC-3 cells was less than 5 µM. In addition, on PDK1 kinase, the IC50 was less than 5 µM.
For `CNC(=O)Cc1ccc(Nc2ncc3cccc(-c4ccc(NCCN5CCCC5)nc4)c3n2)cc1` [Compound 400, N-methyl-2-(4-(8-(6-(2-(pyrrolidin-1-yl)ethylamino)pyridin-3-yl)quinazolin-2-ylamino)phenyl)acetamide], the EC50 with PC-3 cells is less than 5 µM. The IC50 on PDK1 kinase was less than 5 µM.
As for `CNC(=O)Cc1cccc(Nc2ncc3cccc(-c4ccc(NCCN5CCCC5)nc4)c3n2)c1` [Compound 401, N-methyl-2-(3-(8-(6-(2-(pyrrolidin-1-yl)ethylamino)pyridin-3-yl)quinazolin-2-ylamino)phenyl)acetamide], the EC50 with PC-3 cells is less than 5 µM. The IC50 at PDK1 kinase is less than 5 µM.
Regarding `CS(=O)(=O)c1cccc(Nc2ncc3cccc(-c4ccc(NCCN5CCCC5)nc4)c3n2)c1` [Compound 402, N-(3-(methylsulfonyl)phenyl)-8-(6-(2-(pyrrolidin-1-yl)ethylamino)pyridin-3-yl)quinazolin-2-amine], the EC50 with PC-3 cells is 5 to 10 µM. Moreover, the half-maximal inhibitory concentration (IC50) at PDK1 kinase was less than 5 µM.
In the case of `O=C(c1ccc(Nc2ncc3cccc(-c4ccc(NCCN5CCCC5)nc4)c3n2)cc1)N1CCOCC1` [Compound 403, morpholino(4-(8-(6-(2-(pyrrolidin-1-yl)ethylamino)pyridin-3-yl)quinazolin-2-ylamino)phenyl)methanone], the EC50 in the experiment on PC-3 cells is less than 5 µM. In addition, the IC50 on PDK1 kinase was less than 5 µM.
`NS(=O)(=O)c1ccc(Nc2ncc3cccc(-c4cnc(NCCN5CCCC5)c(C(F)(F)F)c4)c3n2)cc1` [Compound 404, 4-(8-(6-(2-(pyrrolidin-1-yl)ethylamino)-5-(trifluoromethyl)pyridin-3-yl)quinazolin-2-ylamino)benzenesulfonamide]: in the experiment on PC-3 cells, the EC50 was less than 5 µM. The IC50 on PDK1 kinase is less than 5 µM.
For `COc1ccc(Oc2cccc3cnc(Nc4ccc(S(N)(=O)=O)cc4)nc23)cn1` [Compound 410, 4-(8-(6-methoxypyridin-3-yloxy)quinazolin-2-ylamino)benzenesulfonamide], in the experiment with PC-3 cells, the EC50 was less than 5 µM. At PDK1 kinase, the IC50 is less than 5 µM.
Consider `NS(=O)(=O)c1ccc(Nc2ncc3cccc(Oc4ccc(F)nc4)c3n2)cc1` [Compound 413, 4-(8-(6-fluoropyridin-3-yloxy)quinazolin-2-ylamino)benzenesulfonamide], for which the EC50 with PC-3 cells is less than 5 µM. The IC50 on PDK1 kinase is less than 5 µM.
With `Nc1ccc(S(=O)(=O)N(CCN2CCCC2)c2ncc3cccc(OC4CCNCC4)c3n2)cc1` [Compound 422, 4-amino-N-(8-(piperidin-4-yloxy)quinazolin-2-yl)-N-(2-(pyrrolidin-1-yl)ethyl)benzenesulfonamide], the EC50 in the experiment on PC-3 cells lay within 5 to 10 µM. For the same molecule, on PDK1 kinase, the IC50 lay in the range of 5 to 10 µM.
As for `CN1CCN(c2ccc(-c3cccc4cnc(Nc5ccc(N6CCOCC6)nc5)nc34)cn2)CC1` [Compound 423, 8-(6-(4-methylpiperazin-1-yl)pyridin-3-yl)-N-(6-morpholinopyridin-3-yl)quinazolin-2-amine], in the experiment with PC-3 cells, the EC50 is less than 5 µM. On PDK1 kinase, the IC50 was less than 5 µM.
Regarding `c1cc(-c2ccc(NCCN3CCCC3)nc2)c2nc(Nc3ccc(N4CCOCC4)nc3)ncc2c1` [Compound 424, N-(6-morpholinopyridin-3-yl)-8-(6-(2-(pyrrolidin-1-yl)ethylamino)pyridin-3-yl)quinazolin-2-amine], the EC50 in the experiment on PC-3 cells was less than 5 µM. Moreover, the IC50 at PDK1 kinase is less than 5 µM.
As for `O=S(=O)(c1ccc(Nc2ncc3cccc(-c4ccc(NCCN5CCCC5)nc4)c3n2)cc1)N1CCOCC1` [Compound 425, N-(4-(morpholinosulfonyl)phenyl)-8-(6-(2-(pyrrolidin-1-yl)ethylamino)pyridine-3-yl)quinazolin-2-amine], the EC50 in the experiment with PC-3 cells is less than 5 µM. Moreover, the IC50 on PDK1 kinase is less than 5 µM.
Regarding `c1ccc(Nc2ncc3cccc(-c4ccc(NCCN5CCCC5)nc4)c3n2)cc1` [Compound 426, N-phenyl-8-(6-(2-(pyrrolidin-1-yl)ethylamino)pyridin-3-yl)quinazolin-2-amine], the EC50 with PC-3 cells is less than 5 µM. In addition, the IC50 at PDK1 kinase was less than 5 µM.
In the case of `N#Cc1ccc(Nc2ncc3cccc(-c4ccc(NCCN5CCCC5)nc4)c3n2)cc1` [Compound 427, 4-(8-(6-(2-(pyrrolidin-1-yl)ethylamino)pyridin-3-yl)quinazolin-2-ylamino)benzonitrile], the EC50 in the experiment with PC-3 cells is less than 5 µM. Also, on PDK1 kinase, the IC50 is less than 5 µM.
For `Fc1cc(F)cc(Nc2ncc3cccc(-c4ccc(NCCN5CCCC5)nc4)c3n2)c1` [Compound 428, N-(3,5-difluorophenyl)-8-(6-(2-(pyrrolidin-1-yl)ethylamino)pyridin-3-yl)quinazolin-2-amine], the EC50 with PC-3 cells is less than 5 µM. Besides, at PDK1 kinase, the IC50 was less than 5 µM.
On to `NS(=O)(=O)c1ccc(Nc2ncc3c(Br)ccc(OC4CCNCC4)c3n2)cc1` [Compound 429, 4-(5-bromo-8-(piperidin-4-yloxy)quinazolin-2-ylamino)benzenesulfonamide], for which, in the experiment with PC-3 cells, the EC50 is 5 to 10 µM. The IC50 on PDK1 kinase was less than 5 µM.
For `O=S(=O)(c1ccc(Nc2ncc3c(Br)ccc(OC4CCNCC4)c3n2)cc1)N1CCOCC1` [Compound 430, 5-bromo-N-(4-(morpholinosulfonyl)phenyl)-8-(piperidin-4-yloxy)quinazolin-2-amine], in that order: less than 5 µM and less than 5 µM.
For `Fc1cc(Nc2ncc3cccc(-c4ccc(NCCN5CCCC5)nc4)c3n2)ccc1N1CCOCC1` [Compound 431, N-(3-fluoro-4-morpholinophenyl)-8-(6-(2-(pyrrolidin-1-yl)ethylamino)pyridine-3-yl)quinazolin-2-amine], in that order: less than 5 µM and less than 5 µM.
For `CN1CCN(c2ccc(-c3cccc4cnc(Nc5ccc(N6CCOCC6)c(F)c5)nc34)cn2)CC1` [Compound 432, N-(3-fluoro-4-morpholinophenyl)-8-(6-(4-methylpiperazin-1-yl)pyridin-3-yl)quinazolin-2-amine], in that order: less than 5 µM and less than 5 µM.
Regarding `Fc1cccc(Nc2ncc3c(Br)ccc(OC4CCNCC4)c3n2)c1` [Compound 433, 5-bromo-N-(3-fluorophenyl)-8-(piperidin-4-yloxy)quinazolin-2-amine], in the experiment on PC-3 cells, the EC50 was less than 5 µM. At PDK1 kinase, the half-inhibitory concentration (IC50) is less than 5 µM.
As to `Fc1ccc(Nc2ncc3c(Br)ccc(OC4CCNCC4)c3n2)cc1` [Compound 434, 5-bromo-N-(4-fluorophenyl)-8-(piperidin-4-yloxy)quinazolin-2-amine], in the experiment with PC-3 cells, the EC50 is less than 5 µM. Besides, the IC50 at PDK1 kinase is less than 5 µM.
On to `Brc1ccc(OC2CCNCC2)c2nc(Nc3ccc(N4CCOCC4)cc3)ncc12` [Compound 435, 5-bromo-N-(4-morpholinophenyl)-8-(piperidin-4-yloxy)quinazolin-2-amine], for which the EC50 with PC-3 cells lay in the range of 5 to 10 µM. For the same molecule, the IC50 on PDK1 kinase is less than 5 µM.
